{"source": "patent US20250186365A1", "about": "“COMBINATION OF ANTISPASMODIC AND OSMOTIC AGENTS FOR TOPICAL PRODUCTS AND METHOD OF USE THEREOF” (priority 2023, published 2025)", "key": {"hind limb muscle": {"system": "hind limb muscle", "assay": "Rat hind limb muscle twitch study", "assay_type": "in vivo, Sprague-Dawley rats", "protocol": "Adverting now to the drawings, FIG. 1 is a schematic diagram of a validated muscle twitch experimental set-up in the present disclosure. Here, anesthetized Sprague-Dawley rats were prepared for muscle contraction assessment of their hind limbs. The hind limbs were shaved and secured at the knee and ankle joints to prevent movement. The distal tendon of the targeted muscle was connected to a high-sensitivity force transducer to measure contractile force with precision. Electrical stimulation was delivered via electrodes positioned on the sciatic nerve to evoke muscle contractions. Vehicle (control study) or 5% w/w of HD was topically applied to the dermal area corresponding to the muscle group under study, ensuring proximity for local diffusion and effect. A study was performed to evaluate the effects of HD on muscle contractility using a validated in vivo rat model. The experimental setup was meticulously designed to measure the contractile force of the hind limb muscle in response to electrical stimulation of the sciatic nerve, providing a quantitative assessment of muscle relaxation and contraction dynamics in the presence of HD. Anesthetized Sprague-Dawley rats were used for this study, ensuring minimal variability in response to HD application. Hind limbs were shaved and then immobilized at the knee and ankle joints to isolate the effect to the targeted muscle group. […]"}, "[1]": {"system": "mouse extensor digitorum longus muscles", "assay": "Isolated mouse muscle contraction study", "protocol": "FIG. 4 is a schematic diagram of a validated isolated mouse muscle contraction study. The mouse muscles were isolated and placed in a physiological buffer within a tissue bath. Muscles were anchored at one end to the chamber floor and connected at the other end to a force transducer. After establishing a baseline response to the electrical field stimulation, HD was added to the buffer at concentrations ranging from 0.01% w/w to 1% w/w, and the impact on muscle contractile force was recorded over time at the fixed frequency of 150 Hz.\nThis subsequent study was aimed to elucidate the specific effects of HD on isolated muscle tissue from mice, to quantify its potential use as a muscle relaxant. The study's design allowed for the controlled assessment of muscle contractility in a physiological buffer, minimizing external variables present in in vivo models. Muscle Isolation: The mouse extensor digitorum longus muscles were carefully dissected and mounted in a tissue bath super fused with oxygenated physiological buffer, ensuring tissue viability throughout the experiment (FIG. 4). Baseline Measurement: Initial contractile responses were established via electrical field stimulation at various frequencies, setting a comparative baseline for subsequent HD application effects. HD Application: Differing concentrations of HD (ranging from 0.01% to 1%) were introduced to the buffer. The muscle's contractile force (amplitude, which is the maximum contractile force) was determined to assess HD's concentration-dependent effects (FIG. 6). Stimulation Frequency Adjustment: To explore the frequency-dependent nature of HD's action, muscles underwent varied frequencies of electrical stimulation. This protocol is aimed to simulate conditions of sporadic muscle spasms."}, "hairless mice": {"system": "hairless mice", "assay": "Rotarod performance study in hairless mice", "assay_type": "in vivo", "conditions": "5% HD topical; for time spent on Rota Rod: 20 rpm, vehicle 60 seconds", "protocol": "Once the mice were trained, the rod was rotated at a constant speed of 20 rpm. Then the mice were placed on the rotating rod and length of time they could stay on the rotating rod was measured.\nThe Rotarod study was to investigate the skeletal muscle relaxant effects of HD, specifically its impact on motor coordination and balance in hairless mice. The study was structured to assess both the kinetics of HD's effect over time and its efficacy in inducing muscle relaxation. Efficacy of HD was determined post-treatment at intervals of 15, 30, 60, 75, 90 minutes. Control and Treatment Groups: Each stage included a control group receiving vehicle (Aloe Vera Gel) and a test group treated with HD, 5% w/w HD (0.5 g) in the vehicle (9.5 g Aloe Vera Gel). The topical treatment was applied to the thighs of all four limbs for each mouse."}}, "note": "Entries after “also recorded” stand apart in the source; their conditions may differ.", "data": [{"compound": "CCCCC(O)CO", "note": "(centres unmarked) [HD, 1,2-hexanediol]", "values": [{"measurement": "duration of muscle contraction", "setting": "hind limb muscle; 5% w/w HD topical vs vehicle, p<0.05", "value": "statistically significant reduction"}, {"measurement": "ability to maintain tetanic contraction during the stimulus period", "setting": "hind limb muscle; 5% w/w HD topical, electrical stimulation at 150 Hz", "value": "failing to maintain tetanic tension; also recorded: unable to maintain tetanic contraction"}, {"measurement": "inhibitory effect on muscle contraction", "setting": "[1]; 0.01% HD in buffer, 150 Hz", "value": "minimal effects; also recorded: No significant inhibitory effect"}, {"measurement": "reduction in contractile force", "setting": "[1]; 0.1% HD in buffer, 150 Hz, vs vehicle controls", "value": "about 44%"}, {"measurement": "torque generation against stimulus frequency", "setting": "[1]; 0.5% HD vs vehicle, n=5, p<0.01", "value": "frequency-dependent decrease in torque generation; also recorded: inhibition is more complete at higher frequencies of stimulation"}, {"measurement": "recovery from the muscle relaxant effect", "setting": "hairless mice", "value": "complete recovery of all mice"}, {"measurement": "time spent on Rota Rod", "setting": "hairless mice; 30 minutes post treatment", "value": "significant decrease"}, {"measurement": "time spent on Rota Rod", "setting": "hairless mice; 60 minutes post treatment", "value": "significant decrease"}]}]}
